Test results as given in patent US20250250230A1, “HETEROCYCLIC COMPOUND” (TAKEDA PHARMACEUTICAL COMPANY LIMITED, priority 2022, published 2025).

These compounds were tested against T1, human orexin type 2 receptor (Homo sapiens, UniProt O43614) (assay: Measurement of orexin type 2 receptor agonist activity (calcium fluorescence, Fluo-4 AM, FDSS)). Conditions: test compound 3 μM; CHO cells expressing human OX2 receptor; DMSO = 0%, orexin A (human) = 100%.
T1 construct: expressed in transfected cells
T1 sequence (O43614 1-444): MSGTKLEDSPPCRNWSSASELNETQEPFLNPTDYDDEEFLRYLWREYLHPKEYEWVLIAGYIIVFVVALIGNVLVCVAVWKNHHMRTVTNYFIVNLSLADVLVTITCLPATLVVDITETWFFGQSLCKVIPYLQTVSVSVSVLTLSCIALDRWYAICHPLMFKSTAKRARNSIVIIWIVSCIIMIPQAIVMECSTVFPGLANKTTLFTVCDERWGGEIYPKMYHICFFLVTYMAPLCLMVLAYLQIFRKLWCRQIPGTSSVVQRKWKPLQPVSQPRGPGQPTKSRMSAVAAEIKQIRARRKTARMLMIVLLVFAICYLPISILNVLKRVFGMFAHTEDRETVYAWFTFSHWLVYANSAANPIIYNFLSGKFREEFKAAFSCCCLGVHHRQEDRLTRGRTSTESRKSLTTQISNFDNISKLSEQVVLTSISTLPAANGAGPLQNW
Assay type: cell-based
Summary of the method: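 CHO-K1 cells stably expressing human OX2R were loaded with Fluo-4 AM (30 min 37 °C, 30 min RT) in HEPES-buffered HBSS with 0.1% BSA and probenecid. Calcium fluorescence was followed on FDSS for 2 min after compound addition; activity normalised to DMSO (0%) and 10 nM orexin A (100%).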

**Q.** With CS(=O)(=O)NC1CCCN(C(=O)C2CC2c2ccccc2-c2c(F)cccc2F)C1 (racemic) [Example 39, a mixture of rac-N-{(3R)-1-[(1R,2R)-2-(2′,6′-difluoro[1,1′-biphenyl]-2-yl)cyclopropane-1-carbonyl]piperidin-3-yl}methanesulfonamide and rac-N-{(3S)-1-[(1R,2R)-2-(2′,6′-difluoro[1,1′-biphenyl]-2-yl)cyclopropane-1-carbonyl]piperidin-3-yl}methanesulfonamide] as the compound, how does the “OX2R agonist activity (3 μM, %)” value read?
**A.** 102%

**Q.** With CS(=O)(=O)NCC1CCN(C(=O)C2CC2c2ccccc2-c2c(F)cccc2F)C1 (racemic) [Example 40, a mixture of rac-N-({(3R)-1-[(1R,2R)-2-(2′,6′-difluoro[1,1′-biphenyl]-2-yl)cyclopropane-1-carbonyl]pyrrolidin-3-yl}methyl)methanesulfonamide and rac-N-({(3S)-1-[(1R,2R)-2-(2′,6′-difluoro[1,1′-biphenyl]-2-yl)cyclopropane-1-carbonyl]pyrrolidin-3-yl}methyl)methanesulfonamide] as the compound, how does the “OX2R agonist activity (3 μM, %)” value read?
**A.** 77%

**Q.** For CS(=O)(=O)NC1CCCCN(C(=O)C2CC2c2ccccc2-c2c(F)cccc2F)C1 (racemic) [Example 41, a mixture of rac-N-{(3R)-1-[(1R,2R)-2-(2′,6′-difluoro[1,1′-biphenyl]-2-yl)cyclopropane-1-carbonyl]azepan-3-yl}methanesulfonamide and rac-N-{(3S)-1-[(1R,2R)-2-(2′,6′-difluoro[1,1′-biphenyl]-2-yl)cyclopropane-1-carbonyl]azepan-3-yl}methanesulfonamide], which “OX2R agonist activity (3 μM, %)” value is on record?
**A.** 97%

**Q.** How did the “OX2R agonist activity (3 μM, %)” value turn out when CS(=O)(=O)NC1CCCN(C(=O)C2CC2c2ccccc2-c2ccccc2Cl)CC1 (racemic) [Example 43, a mixture of rac-N-{(4R)-1-[(1R,2R)-2-(2′-chloro[1,1′-biphenyl]-2-yl)cyclopropane-1-carbonyl]azepan-4-yl}methanesulfonamide and rac-N-{(4S)-1-[(1R,2R)-2-(2′-chloro[1,1′-biphenyl]-2-yl)cyclopropane-1-carbonyl]azepan-4-yl}methanesulfonamide] was run?
**A.** 92%

**Q.** For CS(=O)(=O)NC1CCCN(C(=O)C2CC2c2ccccc2-c2cc(F)ccc2F)CC1 (racemic) [Example 51, a mixture of rac-N-{(4R)-1-[(1R,2R)-2-(2′,5′-difluoro[1,1′-biphenyl]-2-yl)cyclopropane-1-carbonyl]azepan-4-yl}methanesulfonamide and rac-N-{(4S)-1-[(1R,2R)-2-(2′,5′-difluoro[1,1′-biphenyl]-2-yl)cyclopropane-1-carbonyl]azepan-4-yl}methanesulfonamide], which “OX2R agonist activity (3 μM, %)” value is on record?
**A.** 75%

**Q.** Which “OX2R agonist activity (3 μM, %)” value does the source give for Cc1ccccc1-c1ccccc1C1CC1C(=O)N1CCCC(NS(C)(=O)=O)CC1 (racemic) [Example 52, a mixture of rac-N-{(4R)-1-[(1R,2R)-2-(2′-methyl[1,1′-biphenyl]-2-yl)cyclopropane-1-carbonyl]azepan-4-yl}methanesulfonamide and rac-N-{(4S)-1-[(1R,2R)-2-(2′-methyl[1,1′-biphenyl]-2-yl)cyclopropane-1-carbonyl]azepan-4-yl}methanesulfonamide] here?
**A.** 65%

**Q.** Which “OX2R agonist activity (3 μM, %)” value does the source give for CS(=O)(=O)NC1CCCN(C(=O)C2CC2c2ccccc2-c2cccc(F)c2F)CC1 (racemic) [Example 54, a mixture of rac-N-{(4R)-1-[(1R,2R)-2-(2′,3′-difluoro[1,1′-biphenyl]-2-yl)cyclopropane-1-carbonyl]azepan-4-yl}methanesulfonamide and rac-N-{(4S)-1-[(1R,2R)-2-(2′,3′-difluoro[1,1′-biphenyl]-2-yl)cyclopropane-1-carbonyl]azepan-4-yl}methanesulfonamide] here?
**A.** 79%

**Q.** Which “OX2R agonist activity (3 μM, %)” value does the source give for CS(=O)(=O)NC1CCCN(C(=O)C2CC2c2ccccc2-c2ccc(F)cc2F)CC1 (racemic) [Example 56, a mixture of rac-N-{(4R)-1-[(1R,2R)-2-(2′,4′-difluoro[1,1′-biphenyl]-2-yl)cyclopropane-1-carbonyl]azepan-4-yl}methanesulfonamide and rac-N-{(4S)-1-[(1R,2R)-2-(2′,4′-difluoro[1,1′-biphenyl]-2-yl)cyclopropane-1-carbonyl]azepan-4-yl}methanesulfonamide] here?
**A.** 85%

**Q.** With CS(=O)(=O)NC1CCCN(C(=O)C2CC2c2ccccc2-c2ccccc2F)CC1 (racemic) [Example 59, a mixture of rac-N-{(4R)-1-[(1R,2R)-2-(2′-fluoro[1,1′-biphenyl]-2-yl)cyclopropane-1-carbonyl]azepan-4-yl}methanesulfonamide and rac-N-{(4S)-1-[(1R,2R)-2-(2′-fluoro[1,1′-biphenyl]-2-yl)cyclopropane-1-carbonyl]azepan-4-yl}methanesulfonamide] as the compound, how does the “OX2R agonist activity (3 μM, %)” value read?
**A.** 80%

**Q.** How did the “OX2R agonist activity (3 μM, %)” value turn out when CS(=O)(=O)NC1CCCN(C(=O)C2CC2c2ccccc2-c2cc(F)ccc2F)C1 (racemic) [Example 65, a mixture of rac-N-{(3R)-1-[(1R,2R)-2-(2′,5′-difluoro[1,1′-biphenyl]-2-yl)cyclopropane-1-carbonyl]piperidin-3-yl}methanesulfonamide and rac-N-{(3S)-1-[(1R,2R)-2-(2′,5′-difluoro[1,1′-biphenyl]-2-yl)cyclopropane-1-carbonyl]piperidin-3-yl}methanesulfonamide] was run?
**A.** 83%

**Q.** Which “OX2R agonist activity (3 μM, %)” value does the source give for Cc1ccccc1-c1ccccc1C1CC1C(=O)N1CCCC(NS(C)(=O)=O)C1 (racemic) [Example 66, a mixture of rac-N-{(3R)-1-[(1R,2R)-2-(2′-methyl[1,1′-biphenyl]-2-yl)cyclopropane-1-carbonyl]piperidin-3-yl}methanesulfonamide and rac-N-{(3S)-1-[(1R,2R)-2-(2′-methyl[1,1′-biphenyl]-2-yl)cyclopropane-1-carbonyl]piperidin-3-yl}methanesulfonamide] here?
**A.** 52%

**Q.** CS(=O)(=O)NC1CCCN(C(=O)C2CC2c2ccccc2-c2cccc(F)c2F)C1 (racemic) [Example 67, a mixture of rac-N-{(3R)-1-[(1R,2R)-2-(2′,3′-difluoro[1,1′-biphenyl]-2-yl)cyclopropane-1-carbonyl]piperidin-3-yl}methanesulfonamide and rac-N-{(3S)-1-[(1R,2R)-2-(2′,3′-difluoro[1,1′-biphenyl]-2-yl)cyclopropane-1-carbonyl]piperidin-3-yl}methanesulfonamide] was tested. Which “OX2R agonist activity (3 μM, %)” value did it give?
**A.** 89%

**Q.** Which “OX2R agonist activity (3 μM, %)” value does the source give for CS(=O)(=O)NC1CCCN(C(=O)C2CC2c2ccccc2-c2ccc(F)cc2F)C1 (racemic) [Example 68, a mixture of rac-N-{(3R)-1-[(1R,2R)-2-(2′,4′-difluoro[1,1′-biphenyl]-2-yl)cyclopropane-1-carbonyl]piperidin-3-yl}methanesulfonamide and rac-N-{(3S)-1-[(1R,2R)-2-(2′,4′-difluoro[1,1′-biphenyl]-2-yl)cyclopropane-1-carbonyl]piperidin-3-yl}methanesulfonamide] here?
**A.** 85%

**Q.** How did the “OX2R agonist activity (3 μM, %)” value turn out when CS(=O)(=O)NC1CCCN(C(=O)C2CC2c2ccccc2-c2ccccc2F)C1 (racemic) [Example 72, a mixture of rac-N-{(3R)-1-[(1R,2R)-2-(2′-fluoro[1,1′-biphenyl]-2-yl)cyclopropane-1-carbonyl]piperidin-3-yl}methanesulfonamide and rac-N-{(3S)-1-[(1R,2R)-2-(2′-fluoro[1,1′-biphenyl]-2-yl)cyclopropane-1-carbonyl]piperidin-3-yl}methanesulfonamide] was run?
**A.** 81%

**Q.** Which “OX2R agonist activity (3 μM, %)” value does the source give for CS(=O)(=O)NC1CCCN(C(=O)C2CC2c2ccccc2-c2ccccc2Cl)C1 (racemic) [Example 74, a mixture of rac-N-{(3R)-1-[(1R,2R)-2-(2′-chloro[1,1′-biphenyl]-2-yl)cyclopropane-1-carbonyl]piperidin-3-yl}methanesulfonamide and rac-N-{(3S)-1-[(1R,2R)-2-(2′-chloro[1,1′-biphenyl]-2-yl)cyclopropane-1-carbonyl]piperidin-3-yl}methanesulfonamide] here?
**A.** 84%

**Q.** CS(=O)(=O)NC1CCN(C(=O)C2CC2c2ccccc2-c2cc(F)ccc2F)C1 (racemic) [Example 80, a mixture of rac-N-{(3R)-1-[(1R,2R)-2-(2′,5′-difluoro[1,1′-biphenyl]-2-yl)cyclopropane-1-carbonyl]pyrrolidin-3-yl}methanesulfonamide and rac-N-{(3S)-1-[(1R,2R)-2-(2′,5′-difluoro[1,1′-biphenyl]-2-yl)cyclopropane-1-carbonyl]pyrrolidin-3-yl}methanesulfonamide] was tested. Which “OX2R agonist activity (3 μM, %)” value did it give?
**A.** 66%

**Q.** Which “OX2R agonist activity (3 μM, %)” value does the source give for CS(=O)(=O)NC1CCN(C(=O)C2CC2c2ccccc2-c2cccc(F)c2F)C1 (racemic) [Example 81, a mixture of rac-N-{(3R)-1-[(1R,2R)-2-(2′,3′-difluoro[1,1′-biphenyl]-2-yl)cyclopropane-1-carbonyl]pyrrolidin-3-yl}methanesulfonamide and rac-N-{(3S)-1-[(1R,2R)-2-(2′,3′-difluoro[1,1′-biphenyl]-2-yl)cyclopropane-1-carbonyl]pyrrolidin-3-yl}methanesulfonamide] here?
**A.** 70%
